From PubChem BioAssay AID1259407 (Chemical Carcinogenesis Research Information System (CCRIS), 2018)
Calls of active or inactive are those of the source. How the calls were made is not given here.

Tested on: CCRIS mutagenicity, Ames/micronucleus/aberration tests
Assay: CCRIS mutagenicity studies
Details: Test System: AMES SALMONELLA TYPHIMURIUM

Measured: mutagenic call

CC(C)(C)c1cc(O)ccc1O
inactive: Strain/Indicator: TA97, Metabolic Activation: HAMSTER, LIVER, S-9, AROCLOR 1254 (10%), Method: PREINCUBATION inactive; negative | Strain/Indicator: TA97, Metabolic Activation: HAMSTER, LIVER, S-9, AROCLOR 1254 (30%), Method: PREINCUBATION inactive; negative | Strain/Indicator: TA97, Metabolic Activation: NONE, Method: PREINCUBATION inactive; negative | Strain/Indicator: TA97, Metabolic Activation: NONE, Method: STANDARD PLATE inactive; negative | Strain/Indicator: TA97, Metabolic Activation: RAT, LIVER, S-9, AROCLOR 1254 (10%), Method: PREINCUBATION inactive; negative | Strain/Indicator: TA97, Metabolic Activation: RAT, LIVER, S-9, AROCLOR 1254 (30%), Method: PREINCUBATION inactive; negative | Strain/Indicator: TA97, Metabolic Activation: RAT, LIVER, S-9, AROCLOR, Method: STANDARD PLATE inactive; negative | Strain/Indicator: TA97, Metabolic Activation: RAT, LIVER, S-9, PCB, Method: PREINCUBATION inactive; negative | Strain/Indicator: TA98, Metabolic Activation: HAMSTER, LIVER, S-9, AROCLOR 1254 (10%), Method: PREINCUBATION inactive; negative | Strain/Indicator: TA98, Metabolic Activation: HAMSTER, LIVER, S-9, AROCLOR 1254 (30%), Method: PREINCUBATION inactive; negative | Strain/Indicator: TA98, Metabolic Activation: NONE, Method: PREINCUBATION inactive; negative | Strain/Indicator: TA98, Metabolic Activation: RAT, LIVER, S-9, AROCLOR 1254 (10%), Method: PREINCUBATION inactive; negative | Strain/Indicator: TA98, Metabolic Activation: RAT, LIVER, S-9, AROCLOR 1254 (30%), Method: PREINCUBATION inactive; negative | Strain/Indicator: TA98, Metabolic Activation: RAT, LIVER, S-9, PCB, Method: PREINCUBATION inactive; negative | Strain/Indicator: TA100, Metabolic Activation: HAMSTER, LIVER, S-9, AROCLOR 1254 (10%), Method: PREINCUBATION inactive; negative | Strain/Indicator: TA100, Metabolic Activation: HAMSTER, LIVER, S-9, AROCLOR 1254 (30%), Method: PREINCUBATION inactive; negative | Strain/Indicator: TA100, Metabolic Activation: NONE, Method: PREINCUBATION inactive; negative | Strain/Indicator: TA100, Metabolic Activation: NONE, Method: STANDARD PLATE inactive; negative | Strain/Indicator: TA100, Metabolic Activation: RAT, LIVER, S-9, AROCLOR 1254 (10%), Method: PREINCUBATION inactive; negative | Strain/Indicator: TA100, Metabolic Activation: RAT, LIVER, S-9, AROCLOR 1254 (30%), Method: PREINCUBATION inactive; negative | Strain/Indicator: TA100, Metabolic Activation: RAT, LIVER, S-9, AROCLOR, Method: STANDARD PLATE inactive; negative | Strain/Indicator: TA100, Metabolic Activation: RAT, LIVER, S-9, PCB, Method: PREINCUBATION inactive; negative | Strain/Indicator: TA102, Metabolic Activation: HAMSTER, LIVER, S-9, AROCLOR 1254 (10%), Method: PREINCUBATION inactive; negative | Strain/Indicator: TA102, Metabolic Activation: HAMSTER, LIVER, S-9, AROCLOR 1254 (30%), Method: PREINCUBATION inactive; negative | Strain/Indicator: TA102, Metabolic Activation: NONE, Method: PREINCUBATION inactive; negative | Strain/Indicator: TA102, Metabolic Activation: NONE, Method: STANDARD PLATE inactive; negative | Strain/Indicator: TA102, Metabolic Activation: RAT, LIVER, S-9, AROCLOR 1254 (10%), Method: PREINCUBATION inactive; negative | Strain/Indicator: TA102, Metabolic Activation: RAT, LIVER, S-9, AROCLOR 1254 (30%), Method: PREINCUBATION inactive; negative | Strain/Indicator: TA102, Metabolic Activation: RAT, LIVER, S-9, AROCLOR, Method: STANDARD PLATE inactive; negative | Strain/Indicator: TA102, Metabolic Activation: RAT, LIVER, S-9, PCB, Method: PREINCUBATION inactive; negative | Strain/Indicator: TA104, Metabolic Activation: NONE, Method: PREINCUBATION inactive; negative | Strain/Indicator: TA104, Metabolic Activation: NONE, Method: STANDARD PLATE inactive; negative | Strain/Indicator: TA104, Metabolic Activation: RAT, LIVER, S-9, AROCLOR, Method: PREINCUBATION inactive; negative | Strain/Indicator: TA104, Metabolic Activation: RAT, LIVER, S-9, AROCLOR, Method: STANDARD PLATE inactive; negative
